In ChEMBL document CHEMBL1909046, “DrugMatrix in vitro pharmacology data”:

How the values were obtained:
[1] = target: T1, Type-2 angiotensin II receptor (Homo sapiens, UniProt P50052); experiment: biochemical; type: cell-based, CHO-K1; details: cho-k1; note: in other assays of this panel Not Active means under 50% inhibition at 10 µM
T1 sequence (P50052 whole entry): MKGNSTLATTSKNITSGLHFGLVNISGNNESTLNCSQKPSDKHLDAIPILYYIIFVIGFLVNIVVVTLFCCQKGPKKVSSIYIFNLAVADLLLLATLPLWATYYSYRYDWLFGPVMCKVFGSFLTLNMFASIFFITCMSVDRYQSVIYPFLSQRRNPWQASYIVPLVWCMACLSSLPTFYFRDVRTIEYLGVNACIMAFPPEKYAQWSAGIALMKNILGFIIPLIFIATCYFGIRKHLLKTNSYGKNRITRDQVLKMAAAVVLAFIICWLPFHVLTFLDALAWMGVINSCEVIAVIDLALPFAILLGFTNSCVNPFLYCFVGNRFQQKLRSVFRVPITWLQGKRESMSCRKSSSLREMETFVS

[2] = target: Protein phosphatase 3 catalytic subunit alpha (Homo sapiens, UniProt Q08209); design: species or system Escherichia coli;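 note: inhibition of calcineurin (PP2B) enzyme activity, measured with DiFMUP as the substrate; in other assays of this panel Not Active means under 50% inhibition at 10 µM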
[3] = target: Tyrosine-protein kinase Lck (Homo sapiens, UniProt P06239); experiment: DRUGMATRIX: Protein Tyrosine Kinase, LCK enzyme inhibition (substrate: Poly(Glu:Tyr)); type: cell-based, Insect cells; details: insect cells; Not Active = under 50% inhibition at 10 µM
Sequence of Tyrosine-protein kinase Lck (P06239 whole entry): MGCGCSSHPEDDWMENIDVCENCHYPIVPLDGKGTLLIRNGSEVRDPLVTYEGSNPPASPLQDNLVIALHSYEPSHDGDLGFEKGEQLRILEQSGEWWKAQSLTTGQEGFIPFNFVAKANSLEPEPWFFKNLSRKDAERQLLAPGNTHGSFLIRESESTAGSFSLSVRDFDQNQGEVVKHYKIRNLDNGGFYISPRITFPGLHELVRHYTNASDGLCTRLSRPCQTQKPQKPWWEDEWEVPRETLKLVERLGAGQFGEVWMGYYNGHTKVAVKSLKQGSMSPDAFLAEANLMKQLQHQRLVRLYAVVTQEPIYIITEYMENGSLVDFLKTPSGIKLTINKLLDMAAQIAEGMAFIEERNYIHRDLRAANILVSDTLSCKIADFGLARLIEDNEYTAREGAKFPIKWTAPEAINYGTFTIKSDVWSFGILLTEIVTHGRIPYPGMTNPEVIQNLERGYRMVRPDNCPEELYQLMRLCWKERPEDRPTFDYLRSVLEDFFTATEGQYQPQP

[4] = target: T2, Receptor-type tyrosine-protein phosphatase C (Homo sapiens, UniProt P08575); design: species or system Escherichia coli;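 note: inhibition of CD45 enzyme activity measured using DiFMUP as substrate; in other assays of this panel Not Active means under 50% inhibition at 10 µM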
T2 sequence (P08575 whole entry): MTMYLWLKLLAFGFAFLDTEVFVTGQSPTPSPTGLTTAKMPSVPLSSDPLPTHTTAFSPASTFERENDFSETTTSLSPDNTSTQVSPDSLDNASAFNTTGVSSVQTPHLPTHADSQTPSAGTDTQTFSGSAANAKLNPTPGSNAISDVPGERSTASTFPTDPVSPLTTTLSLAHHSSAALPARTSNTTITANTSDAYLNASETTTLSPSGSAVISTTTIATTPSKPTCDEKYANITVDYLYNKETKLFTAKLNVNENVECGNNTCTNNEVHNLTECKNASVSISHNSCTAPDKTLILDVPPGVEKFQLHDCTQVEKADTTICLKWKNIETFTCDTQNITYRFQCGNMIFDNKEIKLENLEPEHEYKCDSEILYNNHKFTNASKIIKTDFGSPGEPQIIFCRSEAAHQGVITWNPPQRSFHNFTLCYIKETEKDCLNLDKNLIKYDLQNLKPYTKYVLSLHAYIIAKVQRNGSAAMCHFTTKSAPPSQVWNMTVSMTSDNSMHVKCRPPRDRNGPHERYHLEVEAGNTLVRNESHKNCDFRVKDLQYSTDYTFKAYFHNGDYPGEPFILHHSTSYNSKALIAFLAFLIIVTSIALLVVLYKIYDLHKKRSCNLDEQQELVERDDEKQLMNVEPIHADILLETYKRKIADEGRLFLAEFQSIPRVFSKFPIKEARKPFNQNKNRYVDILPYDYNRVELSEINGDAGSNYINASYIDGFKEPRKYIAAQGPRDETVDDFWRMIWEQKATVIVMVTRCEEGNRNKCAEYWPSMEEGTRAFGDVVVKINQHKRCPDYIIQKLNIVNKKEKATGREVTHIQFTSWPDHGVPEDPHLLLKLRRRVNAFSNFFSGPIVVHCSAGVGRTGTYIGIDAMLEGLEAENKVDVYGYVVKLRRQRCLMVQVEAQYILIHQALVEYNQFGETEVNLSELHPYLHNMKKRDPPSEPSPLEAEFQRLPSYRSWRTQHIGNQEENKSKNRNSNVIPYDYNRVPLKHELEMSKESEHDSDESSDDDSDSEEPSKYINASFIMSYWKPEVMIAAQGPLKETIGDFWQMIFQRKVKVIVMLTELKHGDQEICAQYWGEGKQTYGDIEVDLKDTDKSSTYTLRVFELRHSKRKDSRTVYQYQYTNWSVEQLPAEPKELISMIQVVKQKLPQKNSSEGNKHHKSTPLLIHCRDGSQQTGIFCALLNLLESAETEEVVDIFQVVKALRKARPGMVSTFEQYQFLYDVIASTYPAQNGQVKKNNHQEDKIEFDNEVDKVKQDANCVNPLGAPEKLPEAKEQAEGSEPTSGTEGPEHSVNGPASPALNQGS

[5] = DRUGMATRIX: Purinergic P2X radioligand binding (ligand: [3H] alpha, beta-Methylene-ATP); type: cell membranes, Oryctolagus cuniculus, New Zealand albino, Urinary bladder, Membrane; details: Not Active = under 50% inhibition at 10 µM
Estrogen receptor beta = Estrogen receptor beta (Homo sapiens, UniProt Q92731); details: sf9; note: in other assays of this panel Not Active means under 50% inhibition at 10 µM
Sequence of Estrogen receptor beta (Q92731 whole entry): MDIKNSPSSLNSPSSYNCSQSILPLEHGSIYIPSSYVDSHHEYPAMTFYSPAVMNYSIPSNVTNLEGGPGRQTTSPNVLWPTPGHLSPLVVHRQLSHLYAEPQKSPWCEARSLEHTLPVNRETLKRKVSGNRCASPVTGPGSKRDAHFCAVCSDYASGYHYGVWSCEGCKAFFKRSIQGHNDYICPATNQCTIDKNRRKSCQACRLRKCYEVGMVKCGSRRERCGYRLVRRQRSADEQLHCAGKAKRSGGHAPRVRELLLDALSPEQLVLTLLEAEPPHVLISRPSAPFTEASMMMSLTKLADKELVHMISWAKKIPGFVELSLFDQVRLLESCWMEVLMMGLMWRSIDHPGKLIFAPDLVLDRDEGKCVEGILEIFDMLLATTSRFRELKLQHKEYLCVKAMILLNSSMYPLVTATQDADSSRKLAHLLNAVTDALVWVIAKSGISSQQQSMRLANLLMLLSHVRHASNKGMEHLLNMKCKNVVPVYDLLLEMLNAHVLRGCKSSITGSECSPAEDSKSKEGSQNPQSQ

CO/N=C(\C(=O)N[C@@H]1C(=O)N2C(C(=O)O)=C(COC(C)=O)CS[C@H]12)c1csc(N)n1 [CEFOTAXIME]
Not Active: IC50 [1] | IC50 [2] | IC50 [3] | IC50 [4] | IC50 [5] | Ki [5] | IC50 (Estrogen receptor beta)

CC(C)C[C@H]1C(=O)N2CCC[C@H]2[C@]2(O)O[C@](NC(=O)[C@@H]3C=C4c5cccc6[nH]cc(c56)C[C@H]4N(C)C3)(C(C)C)C(=O)N12 [ERGOCRYPTINE]
Not Active: IC50 [1] | IC50 [2] | IC50 [3] | IC50 [4] | IC50 [5] | Ki [5] | IC50 (Estrogen receptor beta)

N[C@@H](Cn1ccc(=O)c(O)c1)C(=O)O [L-MIMOSINE]
Not Active: IC50 [1] | IC50 [2] | IC50 [3] | IC50 [4] | IC50 [5] | Ki [5] | IC50 (Estrogen receptor beta)

Nc1cc(-c2ccncc2)c[nH]c1=O [INAMRINONE]
Not Active: IC50 [1] | IC50 [2] | IC50 [3] | IC50 [4] | IC50 [5] | Ki [5] | IC50 (Estrogen receptor beta)

NC(=O)c1cccc(N)c1 [3-AMINOBENZAMIDE]
Not Active: IC50 [1] | IC50 [2] | IC50 [3] | IC50 [4] | IC50 [5] | Ki [5] | IC50 (Estrogen receptor beta)

NC(=O)c1cccnc1 [NIACINAMIDE]
Not Active: IC50 [1] | IC50 [2] | IC50 [3] | IC50 [4] | IC50 [5] | Ki [5] | IC50 (Estrogen receptor beta)

CCC1=C(C)CN(C(=O)NCCc2ccc(S(=O)(=O)NC(=O)N[C@H]3CC[C@H](C)CC3)cc2)C1=O [GLIMEPIRIDE]
Not Active: IC50 [1] | IC50 [2] | IC50 [3] | IC50 [4] | IC50 [5] | Ki [5] | IC50 (Estrogen receptor beta)

CC(=O)OCC(=O)[C@@]12OC(C)(C)O[C@@H]1C[C@H]1[C@@H]3C[C@H](F)C4=CC(=O)C=C[C@]4(C)[C@@]3(F)[C@@H](O)C[C@@]12C [FLUOCINONIDE]
Not Active: IC50 [1] | IC50 [2] | IC50 [3] | IC50 [4] | IC50 [5] | Ki [5] | IC50 (Estrogen receptor beta)

COc1cccc2c1C(=O)c1c(O)c3c(c(O)c1C2=O)C[C@@](O)(C(C)=O)C[C@@H]3O[C@H]1C[C@H](N)[C@H](O)[C@H](C)O1 [DAUNORUBICIN]
Not Active: IC50 [1] | IC50 [2] | IC50 [3] | IC50 [4] | IC50 [5] | Ki [5] | IC50 (Estrogen receptor beta)

CC[C@]1(O)C[C@@H]2CN(CCc3c([nH]c4ccccc34)[C@@](C(=O)OC)(c3cc4c(cc3OC)N(C)[C@H]3[C@@](O)(C(N)=O)[C@H](O)[C@]5(CC)C=CCN6CC[C@]43[C@@H]65)C2)C1 [VINDESINE]
Not Active: IC50 [1] | IC50 [2] | IC50 [3] | IC50 [4] | IC50 [5] | Ki [5] | IC50 (Estrogen receptor beta)

CCOc1nc2cccc(C(=O)O)c2n1Cc1ccc(-c2ccccc2-c2nnn[nH]2)cc1
Not Active: IC50 [1] | IC50 [2] | IC50 [3] | IC50 [4] | IC50 [5] | Ki [5] | IC50 (Estrogen receptor beta)

C[C@@H]1O[C@@H](O[C@H]2C[C@@H](O)[C@]3(CO)[C@H]4[C@H](O)C[C@]5(C)[C@@H](C6=CC(=O)OC6)CC[C@]5(O)[C@@H]4CC[C@]3(O)C2)[C@H](O)[C@H](O)[C@H]1O [OUABAIN]
Not Active: IC50 [1] | IC50 [2] | IC50 [3] | IC50 [4] | IC50 [5] | Ki [5] | IC50 (Estrogen receptor beta)

C#C[C@]1(O)CC[C@H]2[C@@H]3CCC4=CC(=O)CC[C@]4(C)[C@H]3CC[C@@]21C [ETHISTERONE]
Not Active: IC50 [1] | IC50 [2] | IC50 [3] | IC50 [4] | IC50 [5] | Ki [5] | IC50 (Estrogen receptor beta)

O=C(c1ccccc1F)N1CCC(Cc2ccccc2)CC1
Not Active: IC50 [1] | IC50 [2] | IC50 [3] | IC50 [4] | IC50 [5] | Ki [5] | IC50 (Estrogen receptor beta)

O=C(O)CCNC(=O)c1ccc(/N=N/c2ccc(O)c(C(=O)O)c2)cc1 [BALSALAZIDE]
Not Active: IC50 [1] | IC50 [2] | IC50 [3] | IC50 [4] | IC50 [5] | Ki [5] | IC50 (Estrogen receptor beta)

NS(=O)(=O)c1cc(C2(O)NC(=O)c3ccccc32)ccc1Cl (stereo not given) [CHLORTHALIDONE]
Not Active: IC50 [1] | IC50 [2] | IC50 [3] | IC50 [4] | IC50 [5] | Ki [5] | IC50 (Estrogen receptor beta)

CC(=O)OCC(=O)[C@@]1(O)CC[C@H]2[C@@H]3CCC4=CC(=O)CC[C@]4(C)[C@@]3(F)[C@@H](O)C[C@@]21C [FLUDROCORTISONE ACETATE]
Not Active: IC50 [1] | IC50 [2] | IC50 [3] | IC50 [4] | IC50 [5] | Ki [5] | IC50 (Estrogen receptor beta)

COLISTIN
Not Active: IC50 [1] | Ki [1] | IC50 [2] | Ki [2] | IC50 [3] | Ki [3] | IC50 [4] | Ki [4] | IC50 [5] | Ki [5] | IC50 (Estrogen receptor beta) | Ki (Estrogen receptor beta)

CN1C[C@@H]2C[C@H]1CN2c1cc2c(cc1F)c(=O)c(C(=O)O)cn2C1CC1 [DANOFLOXACIN]
Not Active: IC50 [1] | IC50 [2] | IC50 [3] | IC50 [4] | IC50 [5] | Ki [5] | IC50 (Estrogen receptor beta)

CN1CCN(c2c(F)cc3c(=O)c(C(=O)O)cn(CCF)c3c2F)CC1 [FLEROXACIN]
Not Active: IC50 [1] | IC50 [2] | IC50 [3] | IC50 [4] | IC50 [5] | Ki [5] | IC50 (Estrogen receptor beta)

CC(C)(C(=O)O)c1ccc(C(O)CCCN2CCC(C(O)(c3ccccc3)c3ccccc3)CC2)cc1 (stereo not given) [FEXOFENADINE]
Not Active: IC50 [1] | IC50 [2] | IC50 [3] | IC50 [4] | IC50 [5] | Ki [5] | IC50 (Estrogen receptor beta)

COBALTOUS CHLORIDE
Not Active: IC50 [1] | Ki [1] | IC50 [2] | Ki [2] | IC50 [3] | Ki [3] | IC50 [4] | Ki [4] | IC50 [5] | Ki [5] | IC50 (Estrogen receptor beta) | Ki (Estrogen receptor beta)

CC(=O)Oc1ccccc1C(=O)O [ASPIRIN]
Not Active: IC50 [1] | IC50 [2] | IC50 [3] | IC50 [4] | IC50 [5] | Ki [5] | IC50 (Estrogen receptor beta)

CCN(CC)CCNC(=O)c1ccc(N)cc1 [PROCAINAMIDE]
Not Active: IC50 [1] | IC50 [2] | IC50 [3] | IC50 [4] | IC50 [5] | Ki [5] | IC50 (Estrogen receptor beta)

Cc1cccc(C)c1NC(=O)C1CCCCN1C (stereo not given) [MEPIVACAINE]
Not Active: IC50 [1] | IC50 [2] | IC50 [3] | IC50 [4] | IC50 [5] | Ki [5] | IC50 (Estrogen receptor beta)
